Test results published in the NIST ThermoML archive (doi:10.1016/j.jct.2019.06.017).
Where “and” joins values, the source holds several entries; their conditions need not be identical. Identical values can stand only once. Numbers after ± are expanded uncertainties.

Test: Boiling temperature at pressure P
Conditions: Liquid, Ebulliometric method (Recirculating still)

Row | SMILES | Boiling temperature at pressure P (2.8 kPa) | Boiling temperature at pressure P (4.8 kPa) | Boiling temperature at pressure P (9.8 kPa) | Boiling temperature at pressure P (19.8 kPa) | Boiling temperature at pressure P (29.8 kPa) | Boiling temperature at pressure P (39.8 kPa) | Boiling temperature at pressure P (49.8 kPa) | Boiling temperature at pressure P (59.8 kPa) | Boiling temperature at pressure P (69.8 kPa) | Boiling temperature at pressure P (79.8 kPa) | Boiling temperature at pressure P (89.8 kPa) | further results
1 | OCCN1CCCC1 [1-(2-hydroxyethyl)pyrrolidine] | 87.5 ± 13 °C | 99.1 ± 8.8 °C | 115.7 ± 4.9 °C | 132.4 ± 3.2 °C | 144 ± 2.3 °C | 153.0 ± 1.8 °C | 159.5 ± 1.4 °C | 165.0 ± 1.2 °C | 169.5 ± 1 °C | 173.8 ± 0.8 °C | 176.7 ± 0.7 °C | –
2 | CCN(CC)CCCO [3-diethylamino-1-propanol] | 87.1 ± 6 °C | – | – | 132.2 ± 3.5 °C | – | – | – | – | 169.1 ± 1 °C | – | – | Boiling temperature at pressure P (1.8 kPa): 80.8 ± 6.5 °C; Boiling temperature at pressure P (22.3 kPa): 136.1 ± 3.1 °C; Boiling temperature at pressure P (24.8 kPa): 139.0 ± 2 °C; Boiling temperature at pressure P (34.8 kPa): 147.1 ± 1.7 °C; Boiling temperature at pressure P (44.8 kPa): 154.2 ± 1.5 °C; Boiling temperature at pressure P (54.8 kPa): 160.2 ± 1.5 °C; Boiling temperature at pressure P (64.8 kPa): 167.0 ± 1.4 °C
3 | CN(C)CCCO [3-dimethylamino-1-propanol] | – | 79.2 ± 7.2 °C and 79.8 ± 7 °C | 95.2 ± 5.9 °C | 112.7 ± 2.7 °C | 123.7 ± 2.2 °C | 132 ± 1.7 °C | 138.5 ± 1.4 °C | 144.1 ± 1.2 °C | 148.6 ± 1.1 °C | 153.2 ± 1 °C | 156.8 ± 0.9 °C | Boiling temperature at pressure P (14.8 kPa): 105.4 ± 4 °C; Boiling temperature at pressure P (99.8 kPa): 160.6 ± 0.9 °C
4 | O [water] | – | – | 45.2 ± 3.3 °C | 60 ± 2.7 °C | 69.0 ± 1.8 °C | 75.8 ± 1.4 °C | 81.2 ± 1.2 °C | 86.0 ± 1 °C | 90.0 ± 0.9 °C | 93.6 ± 0.7 °C | – | Boiling temperature at pressure P (100.1 kPa): 99.5 ± 0.7 °C
